# Tested on: SUM149PT spheroids with HUVEC/MSC, viability
# Assay: Anticancer human tumor SUM149PT cell line growth inhibition [GQUAD];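 further: spheroids exposed to drugs for seven days before readout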;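 on viability, T/C: percent viability relative to DMSO vehicle control taken as 100%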
# Settings: for IC50: curve of first compound; for viability, T/C: stronger effect = lower value
# Outline: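 Multi-cell-type spheroids of tumor cells with HUVEC and mesenchymal stem cells, treated with drug combinations. Concentrations descend in half-log steps from near clinical Cmax, or from 10 microM where Cmax is unknown; viability read-out.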
# [1] = second compound 0.0316 µM, first compound 0.000999 µM
# [2] = second compound 0.0316 µM, first compound 0.00316 µM
# [3] = second compound 0.0316 µM, first compound 0.00999 µM
# [4] = second compound 0.0316 µM, first compound 0.0316 µM
# [5] = second compound 0.0316 µM, first compound 0.0999 µM
# [6] = second compound 0.0316 µM, first compound 0.316 µM
# [7] = second compound 0.1 µM, first compound 0.000999 µM
# [8] = second compound 0.1 µM, first compound 0.00316 µM
# [9] = second compound 0.1 µM, first compound 0.00999 µM
# [10] = second compound 0.1 µM, first compound 0.0316 µM
# [11] = second compound 0.1 µM, first compound 0.0999 µM
# [12] = second compound 0.1 µM, first compound 0.316 µM
# [13] = second compound 0.316 µM, first compound 0.000999 µM
# [14] = second compound 0.316 µM, first compound 0.00316 µM
# [15] = second compound 0.316 µM, first compound 0.00999 µM
# [16] = second compound 0.316 µM, first compound 0.0316 µM
# [17] = second compound 0.316 µM, first compound 0.0999 µM
# [18] = second compound 0.316 µM, first compound 0.316 µM
# [19] = second compound 1 µM, first compound 0.000999 µM
# [20] = second compound 1 µM, first compound 0.00316 µM
# [21] = second compound 1 µM, first compound 0.00999 µM
# [22] = second compound 1 µM, first compound 0.0316 µM
# [23] = second compound 1 µM, first compound 0.0999 µM
# [24] = second compound 1 µM, first compound 0.316 µM
# [25] = second compound 3.16 µM, first compound 0.000999 µM
# [26] = second compound 3.16 µM, first compound 0.00316 µM
# [27] = second compound 3.16 µM, first compound 0.00999 µM
# [28] = second compound 3.16 µM, first compound 0.0316 µM
# [29] = second compound 3.16 µM, first compound 0.0999 µM
# [30] = second compound 3.16 µM, first compound 0.316 µM
# [31] = second compound 10 µM, first compound 0.000999 µM
# [32] = second compound 10 µM, first compound 0.00316 µM
# [33] = second compound 10 µM, first compound 0.00999 µM
# [34] = second compound 10 µM, first compound 0.0316 µM
# [35] = second compound 10 µM, first compound 0.0999 µM
# [36] = second compound 10 µM, first compound 0.316 µM
# [37] = second compound 0.0316 µM, first compound 0.1 µM
# [38] = second compound 0.0316 µM, first compound 1 µM
# [39] = second compound 0.0316 µM, first compound 3.16 µM
# [40] = second compound 0.0316 µM, first compound 10 µM
# [41] = second compound 0.1 µM, first compound 0.1 µM
# [42] = second compound 0.1 µM, first compound 1 µM
# [43] = second compound 0.1 µM, first compound 3.16 µM
# [44] = second compound 0.1 µM, first compound 10 µM
# [45] = second compound 0.316 µM, first compound 0.1 µM
# [46] = second compound 0.316 µM, first compound 1 µM
# [47] = second compound 0.316 µM, first compound 3.16 µM
# [48] = second compound 0.316 µM, first compound 10 µM
# [49] = second compound 1 µM, first compound 0.1 µM
# [50] = second compound 1 µM, first compound 1 µM
# [51] = second compound 1 µM, first compound 3.16 µM
# [52] = second compound 1 µM, first compound 10 µM
# [53] = second compound 3.16 µM, first compound 0.1 µM
# [54] = second compound 3.16 µM, first compound 1 µM
# [55] = second compound 3.16 µM, first compound 3.16 µM
# [56] = second compound 3.16 µM, first compound 10 µM
# [57] = second compound 10 µM, first compound 0.1 µM
# [58] = second compound 10 µM, first compound 1 µM
# [59] = second compound 10 µM, first compound 3.16 µM
# [60] = second compound 10 µM, first compound 10 µM
compound,measurement,setting,value
CC[C@@]1(O)C(=O)OCc2c1cc1n(c2=O)Cc2cc3c(CN(C)C)c(O)ccc3nc2-1 + Cc1[nH]c2ccc(F)cc2c1-c1nc2c3cccnc3c3ncccc3c2[nH]1,IC50,second compound 0.0316 µM,85.2 nM
same,IC50,second compound 0.1 µM,84.8 nM
same,IC50,second compound 0.316 µM,80.2 nM
same,IC50,second compound 1 µM,78.3 nM
same,IC50,second compound 3.16 µM,85.7 nM
same,IC50,second compound 10 µM,77.2 nM
same,"viability, T/C",[1],103%
same,"viability, T/C",[2],89.6%
same,"viability, T/C",[3],107%
same,"viability, T/C",[4],85.2%
same,"viability, T/C",[5],43.1%
same,"viability, T/C",[6],45.6%
same,"viability, T/C",[7],110%
same,"viability, T/C",[8],105%
same,"viability, T/C",[9],104%
same,"viability, T/C",[10],87.3%
same,"viability, T/C",[11],42.5%
same,"viability, T/C",[12],45.1%
same,"viability, T/C",[13],97.1%
same,"viability, T/C",[14],99.7%
same,"viability, T/C",[15],106%
same,"viability, T/C",[16],89%
same,"viability, T/C",[17],40.2%
same,"viability, T/C",[18],41.5%
same,"viability, T/C",[19],114%
same,"viability, T/C",[20],99.8%
same,"viability, T/C",[21],105%
same,"viability, T/C",[22],80.2%
same,"viability, T/C",[23],41.5%
same,"viability, T/C",[24],40.2%
same,"viability, T/C",[25],82.7%
same,"viability, T/C",[26],97.8%
same,"viability, T/C",[27],99%
same,"viability, T/C",[28],91.7%
same,"viability, T/C",[29],43.1%
same,"viability, T/C",[30],44.1%
same,"viability, T/C",[31],96.1%
same,"viability, T/C",[32],86.8%
same,"viability, T/C",[33],108%
same,"viability, T/C",[34],85.1%
same,"viability, T/C",[35],40.5%
same,"viability, T/C",[36],38.7%
CC(C)(O)C1CCC(Nc2ccc3ncc(-c4cccc(C(F)(F)F)c4)n3n2)CC1 (stereo not drawn) + Cc1cnc(CNC(=O)c2c(=O)c3ccc(N4CCCN(C)CC4)nc3n3c2sc2ccccc23)cn1,IC50,second compound 0.0316 µM,1090 nM
same,IC50,second compound 0.1 µM,685 nM
same,IC50,second compound 0.316 µM,349 nM
same,IC50,second compound 1 µM,< 31.6 nM
same,IC50,second compound 3.16 µM,< 31.6 nM
same,IC50,second compound 10 µM,< 31.6 nM
same,"viability, T/C",[4],72.8%
same,"viability, T/C",[37],69.2%
same,"viability, T/C",[6],58.2%
same,"viability, T/C",[38],57%
same,"viability, T/C",[39],32.6%
same,"viability, T/C",[40],29.5%
same,"viability, T/C",[10],57.3%
same,"viability, T/C",[41],63%
same,"viability, T/C",[12],67%
same,"viability, T/C",[42],43.9%
same,"viability, T/C",[43],26.2%
same,"viability, T/C",[44],24.3%
same,"viability, T/C",[16],52.9%
same,"viability, T/C",[45],50.8%
same,"viability, T/C",[18],47.9%
same,"viability, T/C",[46],44.6%
same,"viability, T/C",[47],22.5%
same,"viability, T/C",[48],25.8%
same,"viability, T/C",[22],43.7%
same,"viability, T/C",[49],43.6%
same,"viability, T/C",[24],37.9%
same,"viability, T/C",[50],37.3%
same,"viability, T/C",[51],18.9%
same,"viability, T/C",[52],17.4%
same,"viability, T/C",[28],32.9%
same,"viability, T/C",[53],34.7%
same,"viability, T/C",[30],32.5%
same,"viability, T/C",[54],32.1%
same,"viability, T/C",[55],18.5%
same,"viability, T/C",[56],1.21%
same,"viability, T/C",[34],0.27%
same,"viability, T/C",[57],2.83%
same,"viability, T/C",[36],2.02%
same,"viability, T/C",[58],1.99%
same,"viability, T/C",[59],2.14%
same,"viability, T/C",[60],1.18%
CC1COCCN1c1cc(C2(O)CC3CCC(C2)O3)c2cnn(-c3ccn[nH]3)c2n1 (stereo not drawn) + Cc1[nH]c2ccc(F)cc2c1-c1nc2c3cccnc3c3ncccc3c2[nH]1,IC50,second compound 0.0316 µM,73.8 nM
same,IC50,second compound 0.1 µM,77.8 nM
same,IC50,second compound 0.316 µM,84.1 nM
same,IC50,second compound 1 µM,76 nM
same,IC50,second compound 3.16 µM,71.1 nM
same,IC50,second compound 10 µM,61.9 nM
same,"viability, T/C",[4],74.5%
same,"viability, T/C",[37],40.2%
same,"viability, T/C",[6],27.5%
same,"viability, T/C",[38],23.9%
same,"viability, T/C",[39],22%
same,"viability, T/C",[40],15.9%
same,"viability, T/C",[10],78.9%
same,"viability, T/C",[41],40.5%
same,"viability, T/C",[12],28.3%
same,"viability, T/C",[42],22.6%
same,"viability, T/C",[43],23.9%
same,"viability, T/C",[44],15.4%
same,"viability, T/C",[16],80.9%
same,"viability, T/C",[45],45.6%
same,"viability, T/C",[18],24.6%
same,"viability, T/C",[46],25.5%
same,"viability, T/C",[47],25.4%
same,"viability, T/C",[48],14.7%
same,"viability, T/C",[22],81.8%
same,"viability, T/C",[49],40.2%
same,"viability, T/C",[24],24.8%
same,"viability, T/C",[50],23.5%
same,"viability, T/C",[51],23.6%
same,"viability, T/C",[52],17.6%
same,"viability, T/C",[28],78.4%
same,"viability, T/C",[53],38.2%
same,"viability, T/C",[30],22.3%
same,"viability, T/C",[54],25.8%
same,"viability, T/C",[55],23.5%
same,"viability, T/C",[56],15.3%
same,"viability, T/C",[34],74.9%
same,"viability, T/C",[57],32.2%
same,"viability, T/C",[36],22.9%
same,"viability, T/C",[58],23.1%
same,"viability, T/C",[59],24.7%
same,"viability, T/C",[60],16.2%
Cn1ncnc1[C@H]1c2n[nH]c(=O)c3cc(F)cc(c23)N[C@@H]1c1ccc(F)cc1 + Cc1cnc(CNC(=O)c2c(=O)c3ccc(N4CCCN(C)CC4)nc3n3c2sc2ccccc23)cn1,IC50,second compound 0.0316 µM,145 nM
same,IC50,second compound 0.1 µM,28.6 nM
same,IC50,second compound 0.316 µM,5.8 nM
same,IC50,second compound 1 µM,< 0.999 nM
same,IC50,second compound 3.16 µM,< 0.999 nM
same,IC50,second compound 10 µM,< 0.999 nM
same,"viability, T/C",[1],92.1%
same,"viability, T/C",[2],68.9%
same,"viability, T/C",[3],77.1%
same,"viability, T/C",[4],68.2%
same,"viability, T/C",[5],50.4%
same,"viability, T/C",[6],42.5%
same,"viability, T/C",[7],71.2%
same,"viability, T/C",[8],63%
same,"viability, T/C",[9],53.7%
same,"viability, T/C",[10],52.2%
same,"viability, T/C",[11],43.2%
same,"viability, T/C",[12],40.8%
same,"viability, T/C",[13],53.9%
same,"viability, T/C",[14],53.4%
same,"viability, T/C",[15],48.7%
same,"viability, T/C",[16],45.4%
same,"viability, T/C",[17],41.1%
same,"viability, T/C",[18],41.6%
same,"viability, T/C",[19],47.8%
same,"viability, T/C",[20],48.8%
same,"viability, T/C",[21],38.5%
same,"viability, T/C",[22],41.1%
same,"viability, T/C",[23],38.5%
same,"viability, T/C",[24],34.2%
same,"viability, T/C",[25],38.5%
same,"viability, T/C",[26],39.5%
same,"viability, T/C",[27],34.4%
same,"viability, T/C",[28],34.6%
same,"viability, T/C",[29],35.3%
same,"viability, T/C",[30],33.4%
same,"viability, T/C",[31],10.1%
same,"viability, T/C",[32],9.37%
same,"viability, T/C",[33],33.9%
same,"viability, T/C",[34],28.9%
same,"viability, T/C",[35],9.31%
same,"viability, T/C",[36],0.26%

# From PubChem BioAssay AID2060484 (Molecular Pharmacology Branch, DTP, NCI, 2025)
